Test system: 3D7-MR4 trophozoite parasite-infected RBCs
Test: Metabolomic profiling (hydrophilic metabolite changes, UHPLC-MS)
Assay type: cell-based, Plasmodium falciparum

## CN(C)Cc1ccc(-c2cc3c(-c4ccc(CN(C)C)cc4)ccnc3[nH]2)cc1.O=C(O)C(F)(F)F [MMV022224]
Metabolite adenosine, log2 fold change
  Log2(fold changes) adenosine: 0.0000
Metabolite alanine/sarcosine, log2 fold change
  Log2(fold changes) alanine/sarcosine: 0.0223
Metabolite anthranilate, log2 fold change
  Log2(fold changes) anthranilate: 0.0000
Metabolite arginine, log2 fold change
  Log2(fold changes) arginine: 0.0000
Metabolite asparagine, log2 fold change
  Log2(fold changes) asparagine: 0.2620
Metabolite aspartate, log2 fold change
  Log2(fold changes) aspartate: -0.0524
Metabolite biotin, log2 fold change
  Log2(fold changes) biotin: 0.0000
Metabolite cCMP, log2 fold change
  Log2(fold changes) cCMP: 0.0000
Metabolite cGMP, log2 fold change
  Log2(fold changes) cGMP: 0.0000
Metabolite carnitine, log2 fold change
  Log2(fold changes) carnitine: 0.0000
Metabolite citrate/isocitrate, log2 fold change
  Log2(fold changes) citrate/isocitrate: -0.2505
Metabolite coenzyme A
  Log2(fold change) of coenzyme A: -0.6694
Metabolite cyclic-AMP
  Log2(fold change) of cyclic-AMP: 0.0000
Metabolite cytidine
  Log2(fold change) of cytidine: 0.1493
Metabolite dAMP
  Log2(fold change) of dAMP: 0.0000
Metabolite dATP
  Log2(fold change) of dATP: -0.1042
Metabolite dCDP
  Log2(fold change) of dCDP: -0.6243
Metabolite dCMP
  Log2(fold change) of dCMP: -0.5224
Metabolite dCTP
  Log2(fold change) of dCTP: -0.4073
Metabolite dGDP/ADP
  Log2(fold change) of dGDP/ADP: -0.4184
Metabolite dGMP/AMP
  Log2(fold change) of dGMP/AMP: -0.2434
Metabolite dGTP/ATP
  Log2(fold change) of dGTP/ATP: -0.1490
Metabolite dTDP
  Log2(fold change) of dTDP: 0.0000
Metabolite dTMP
  Log2(fold change) of dTMP: -0.1539
Metabolite dTTP
  Log2(fold change) of dTTP: -0.2628
Metabolite dUMP
  Log2(fold change) of dUMP: 0.0000
Metabolite dUTP
  Log2(fold change) of dUTP: 0.0000
Metabolite deoxyguanosine
  Log2(fold change) of deoxyguanosine: 0.0000
Metabolite deoxyinosine
  Log2(fold change) of deoxyinosine: 0.0000
Metabolite deoxyribose-phosphate
  Log2(fold change) of deoxyribose-phosphate: 0.0000
Metabolite deoxyuridine
  Log2(fold change) of deoxyuridine: 0.0000
Metabolite dihydroorotate
  Log2(fold change) of dihydroorotate: 0.4231
Metabolite folate
  Log2(fold change) of folate: 0.2103
Metabolite fructose-1-6-bisphosphate
  Log2(fold change) of fructose-1-6-bisphosphate: -0.0559
Metabolite fructose-6-phosphate
  Log2(fold change) of fructose-6-phosphate: 0.0000
Metabolite fumarate
  Log2(fold change) of fumarate: -0.4743
Metabolite glucono-lactone
  Log2(fold change) of glucono-lactone: 0.0000
Metabolite glucose-1/6-phosphate
  Log2(fold change) of glucose-1/6-phosphate: 0.0000
Metabolite glutamate
  Log2(fold change) of glutamate: -0.2593
Metabolite glutamine
  Log2(fold change) of glutamine: 0.1154
Metabolite glutathione
  Log2(fold change) of glutathione: -0.5102
Metabolite glutathione disulfide
  Log2(fold change) glutathione disulfide: -0.1758
Metabolite glycerate
  Log2(fold change) glycerate: 0.0000
Metabolite guanine
  Log2(fold change) guanine: -0.4489
Metabolite guanosine
  Log2(fold change) guanosine: 0.0000
Metabolite histidine
  Log2(fold change) histidine: 0.2818
Metabolite homocysteic acid
  Log2(fold change) homocysteic acid: 0.0000
Metabolite hydroxyphenylpyruvate
  Log2(fold change) hydroxyphenylpyruvate: 0.0000
Metabolite hydroxyproline/Aminolevulinate
  Log2(fold change) hydroxyproline/Aminolevulinate: -0.0239
Metabolite hypoxanthine
  Log2(fold change) hypoxanthine: 0.0610
Metabolite indole
  Log2(fold change) indole: 0.8345
Metabolite inosine
  Log2(fold change) inosine: -0.1646
Metabolite isoleucine
  Log2(fold change) isoleucine: -0.1407
Metabolite lactate
  Log2(fold change) lactate: -0.4343
Metabolite leucine
  Log2(fold change) leucine: 0.0081
Metabolite lysine
  Log2(fold change) lysine: 0.0000
Metabolite malate
  Log2(fold change) malate: -0.4038
Metabolite maleic acid
  Log2(fold change) maleic acid: -0.3811
Metabolite methionine
  Log2(fold change) methionine: 0.2971
Metabolite myo-inositol
  Log2(fold change) myo-inositol: 0.0000
Metabolite nicotinamide mononucleotide
  Log2(fold change) nicotinamide mononucleotide: 0.0000
Metabolite nicotinate
  Log2(fold change) nicotinate: -0.4667
Metabolite ornithine
  Log2(fold change) ornithine: 0.0000
Metabolite orotate
  Log2(fold change) orotate: -0.1913
Metabolite orotidine-5'-phosphate
  Log2(fold change) orotidine-5'-phosphate: -0.1124
Metabolite oxaloacetate
  Log2(fold change) oxaloacetate: 0.0000
Metabolite p-aminobenzoate
  Log2(fold change) p-aminobenzoate: 0.0000
Metabolite p-hydroxybenzoate
  Log2(fold change) p-hydroxybenzoate: 0.0000
Metabolite pantothenate
  Log2(fold change) pantothenate: -0.1562
Metabolite phenylalanine
  Log2(fold change) phenylalanine: -0.0454
Metabolite phenylpyruvate
  Log2(fold change) phenylpyruvate: 0.0000
Metabolite phosphoenolpyruvate
  Log2(fold change) phosphoenolpyruvate: -0.1663
Metabolite prephenate
  Log2(fold change) prephenate: 0.0000
Metabolite proline
  Log2(fold change) proline: -0.1446
Metabolite pyridoxine
  Log2(fold change) pyridoxine: 0.0000
Metabolite pyruvate
  Log2(fold change) pyruvate: -0.5314
Metabolite riboflavin
  Log2(fold change) riboflavin: 0.4707
Metabolite ribose
  Log2(fold change) ribose: 0.0000
Metabolite ribose-phosphate
  Log2(fold change) ribose-phosphate: 0.0000
Metabolite ribulose-5-phosphate
  Log2(fold change) ribulose-5-phosphate: -0.0752
Metabolite serine
  Log2(fold change) serine: 0.2570
Metabolite sn-glycerol-3-phosphate
  Log2(fold change) sn-glycerol-3-phosphate: 0.2730
Metabolite succinate/Methylmalonic acid
  Log2(fold change) succinate/Methylmalonic acid: -0.4610
Metabolite succinyl-CoA/methylmalonyl-CoA
  Log2(fold change) succinyl-CoA/methylmalonyl-CoA: -0.1003
Metabolite taurine
  Log2(fold change) taurine: 0.0000
Metabolite thiamine
  Log2(fold change) thiamine: 0.0000
Metabolite threonine/homoserine
  Log2(fold change) threonine/homoserine: 0.2231
Metabolite thymidine
  Log2(fold change) thymidine: 0.0000
Metabolite thymine, log2 fold change
  Log2(fold changes) thymine: 0.0000
Metabolite trehalose-6-Phosphate, log2 fold change
  Log2(fold changes) trehalose-6-Phosphate: 0.0000
Metabolite tryptophan, log2 fold change
  Log2(fold changes) tryptophan: 0.5432
Metabolite tyrosine, log2 fold change
  Log2(fold changes) tyrosine: 0.1420
Metabolite uridine, log2 fold change
  Log2(fold changes) uridine: 0.0000
Metabolite valine, log2 fold change
  Log2(fold changes) valine: -0.1357
Metabolite xanthine, log2 fold change
  Log2(fold changes) xanthine: 0.0000
Metabolite xanthosine-5-phosphate, log2 fold change
  Log2(fold changes) xanthosine-5-phosphate: -0.1792
Metabolite xanthosine, log2 fold change
  Log2(fold changes) xanthosine: -1.8994
Metabolite xylose, log2 fold change
  Log2(fold changes) xylose: 0.0000

— PMC7031696 (Cell chemical biology, 2019)
